The source of these data is US8138168B1 (Takeda Pharmaceutical Company Limited, priority 2007, dated 2012).

pIC50: −log10 of the molar value.

The target in the first assay is T1, Recombinant human renin (Homo sapiens, UniProt P00797).
T1 construct: isolate the active form (residues 67-406); made in house; host or cells: FreeStyle 293-F cells (transient expression of pcDNA3.1(+)/hREN)
T1 sequence (P00797 67-406): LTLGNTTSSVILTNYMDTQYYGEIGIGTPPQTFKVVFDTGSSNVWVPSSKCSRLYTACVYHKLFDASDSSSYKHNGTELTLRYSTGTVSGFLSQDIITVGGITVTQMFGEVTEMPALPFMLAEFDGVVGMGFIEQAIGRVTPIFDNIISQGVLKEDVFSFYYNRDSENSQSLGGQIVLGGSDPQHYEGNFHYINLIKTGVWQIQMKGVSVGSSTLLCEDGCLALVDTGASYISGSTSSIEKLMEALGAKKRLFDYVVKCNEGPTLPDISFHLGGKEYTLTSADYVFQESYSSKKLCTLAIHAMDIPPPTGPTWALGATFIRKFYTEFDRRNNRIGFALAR
In words: In vitro enzymatic activity assay of renin inhibitors (fluorogenic peptide substrate). The class given is biochemical.
Conditions: not given
Summed up: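 Enzyme: recombinant human renin, 3 nM final, 10 min compound pre-incubation at 37 °C; buffer 50 mM Hepes pH 7.4 with 0.1 mg/mL BSA or extra 2% BSA; 5% DMSO.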
For `COCCCn1c([C@@H]2CCCN(C(=O)C[C@H](N)CNC(=O)Nc3ccccc3Cl)C2)nc2ccccc21` [Compound 257, 1-((S)-2-amino-4-((R)-3-(1-(3-methoxypropyl)-1H-benzo[d]imidazol-2-yl)piperidin-1-yl)-4-oxobutyl)-3-(2-chlorophenyl)urea], the negative logarithm of the IC50 (pIC50) is more than 7.00.

The same assay, now with this note: read-out: IC50 of Exemplified Compounds Against Renin.
On to `COCCCn1c([C@@H]2CCCN(C(=O)C[C@H](N)CNC(=O)Nc3cccc(Cl)c3)C2)nc2ccccc21` [Compound 256, 1-((S)-2-ainino-4-((R)-3-(1-(3-methoxypropyl)-1H-benzo[d]imidazol-2-yl)piperidin-1-yl)-4-oxobutyl)-3-(3-chlorophenyl)urea], for which the negative-log IC50 (pIC50) was more than 7.00.
For the compound `COCCCn1c([C@@H]2CCCN(C(=O)C[C@H](N)CNC(=O)Nc3ccc4c(c3)OCCO4)C2)nc2ccccc21` [Compound 258, 1-((S)-2-amino-4-((R)-3-(1-(3-methoxypropyl)-1H-benzo[d]imidazol-2-yl)piperidin-1-yl)-4-oxobutyl)-3-(2,3-dihydrobenzo[b][1,4]dioxin-6-yl)urea], the pIC50 is more than 7.00.
Same read-out and setting: in the case of `COCCCn1c([C@@H]2CCCN(C(=O)C[C@H](N)CNC(=O)c3ccc(-c4cccs4)cc3)C2)nc2ccccc21` [Compound 259, N-((S)-2-amino-4-((R)-3-(1-(3-methoxypropyl)-1H-benzo[d]imidazol-2-yl)piperidin-1-yl)-4-oxobutyl)-4-(thiophen-2-yl)benzamide] it was more than 7.00; in that of `COCCCn1c([C@@H]2CCCN(C(=O)C[C@H](N)CNC(=O)c3ccc(-c4ccccc4F)o3)C2)nc2ccccc21` [Compound 260, N-((S)-2-amino-4-((R)-3-(1-(3-methoxypropyl)-1H-benzo[d]imidazol-2-yl)piperidin-1-yl)-4-oxobutyl)-5-(2-fluorophenyl)furan-2-carboxamide], more than 7.00.
Still for that read-out and setting: in the case of `COCCCn1c([C@@H]2CCCN(C(=O)C[C@H](N)CNC(=O)c3ccc(-c4ccsc4)cc3)C2)nc2ccccc21` [Compound 261, N-((S)-2-amino-4-((R)-3-(1-(3-methoxypropyl)-1H-benzo[d]imidazol-2-yl)piperidin-1-yl)-4-oxobutyl)-4-(thiophen-3-yl)benzamide] it was more than 7.00.
Same read-out and setting: for `COCCCn1c([C@@H]2CCCN(C(=O)C[C@H](N)CNC(=O)c3ccc(Cl)c(Cl)c3)C2)nc2ccccc21` [Compound 262, N-((S)-2-amino-4-((R)-3-(1-(3-methoxypropyl)-1H-benzo[d]imidazol-2-yl)piperidin-1-yl)-4-oxobutyl)-3,4-dichlorobenzamide] the value was 6.00 to 7.00.
As for `COCCCn1c([C@@H]2CCCN(C(=O)C[C@H](N)CNC(=O)c3cc4ccccc4o3)C2)nc2ccccc21` [Compound 263, N-((S)-2-amino-4-((R)-3-(1-(3-methoxypropyl)-1H-benzo[d]imidazol-2-yl)piperidin-1-yl)-4-oxobutyl)benzofuran-2-carboxamide], the pIC50 was 6.00 to 7.00.
For `COCCCn1c([C@@H]2CCCN(C(=O)C[C@H](N)CNC(=O)c3ccc(-c4ccccc4)cc3)C2)nc2ccccc21` [Compound 264, N-((S)-2-amino-4-((R)-3-(1-(3-methoxypropyl)-1H-benzo[d]imidazol-2-yl)piperidin-1-yl)-4-oxobutyl)biphenyl-4-carboxamide], the pIC50 is 6.00 to 7.00.
Same read-out and setting: in the case of `COCCCn1c([C@@H]2CCCN(C(=O)C[C@H](N)CNC(=O)Nc3ccccc3OC(F)(F)F)C2)nc2ccccc21` [Compound 265, 1-((S)-2-amino-4-((R)-3-(1-(3-methoxypropyl)-1H-benzo[d]imidazol-2-yl)piperidin-1-yl)-4-oxobutyl)-3-(2-(trifluoromethoxy)phenyl)urea] it was 6.00 to 7.00; in that of `COCCCn1c([C@@H]2CCCN(C(=O)C[C@H](N)CNC(=O)Nc3ccc4c(c3)CCC4)C2)nc2ccccc21` [Compound 266, 1-((S)-2-amino-4-((R)-3-(1-(3-methoxypropyl)-1H-benzo[d]imidazol-2-yl)piperidin-1-yl)-4-oxobutyl)-3-(2,3-dihydro-1H-inden-5-yl)urea], 6.00 to 7.00.
For the compound `COCCCn1c([C@@H]2CCCN(C(=O)C[C@H](N)CNC(=O)c3ccc(-c4ccc(Cl)cc4Cl)o3)C2)nc2ccccc21` [Compound 267, N-((S)-2-amino-4-((R)-3-(1-(3-methoxypropyl)-1H-benzo[d]imidazol-2-yl)piperidin-1-yl)-4-oxobutyl)-5-(2,4-dichlorophenyl)furan-2-carboxamide], the pIC50 was 6.00 to 7.00.
For `COCCCn1c([C@@H]2CCCN(C(=O)C[C@H](N)CNC(=O)Nc3cc(C(C)(C)C)ccc3OC)C2)nc2ccccc21` [Compound 268, 1-((S)-2-amino-4-((R)-3-(1-(3-methoxypropyl)-1H-benzo[d]imidazol-2-yl)piperidin-1-yl)-4-oxobutyl)-3-(5-tert-butyl-2-methoxyphenyl)urea], the pIC50 was 6.00 to 7.00.
On the same count and under the same terms, in the case of `COCCCn1c([C@@H]2CCCN(C(=O)C[C@H](N)CNC(=O)Nc3ccccc3)C2)nc2ccccc21` [Compound 269, 1-((S)-2-amino-4-((R)-3-(1-(3-methoxypropyl)-1H-benzo[d]imidazol-2-yl)piperidin-1-yl)-4-oxobutyl)-3-phenylurea] it was 6.00 to 7.00; in that of `COCCCn1c([C@@H]2CCCN(C(=O)C[C@H](N)CNC(=O)c3cccc(Oc4ccccc4)c3)C2)nc2ccccc21` [Compound 270, N-((S)-2-amino-4-((R)-3-(1-(3-methoxypropyl)-1H-benzo[d]imidazol-2-yl)piperidin-1-yl)-4-oxobutyl)-3-phenoxybenzamide], 6.00 to 7.00.
The same measure, in the same setting: in the case of `COCCCn1c([C@@H]2CCCN(C(=O)C[C@H](N)CNC(=O)c3ccc4c(c3)CCO4)C2)nc2ccccc21` [Compound 271, N-((S)-2-amino-4-((R)-3-(1-(3-methoxypropyl)-1H-benzo[d]imidazol-2-yl)piperidin-1-yl)-4-oxobutyl)-2,3-dihydrobenzofuran-5-carboxamide] it was 6.00 to 7.00; in that of `COCCCn1c([C@@H]2CCCN(C(=O)C[C@H](N)CNC(=O)Nc3ccccc3Oc3ccccc3)C2)nc2ccccc21` [Compound 272, 1-((S)-2-amino-4-((R)-3-(1-(3-methoxypropyl)-1H-benzo[d]imidazol-2-yl)piperidin-1-yl)-4-oxobutyl)-3-(2-phenoxyphenyl)urea], 6.00 to 7.00; in that of `COCCCn1c([C@@H]2CCCN(C(=O)C[C@H](N)CNC(=O)Nc3cc(OC)ccc3OC)C2)nc2ccccc21` [Compound 273, 1-((S)-2-amino-4-((R)-3-(1-(3-methoxypropyl)-1H-benzo[d]imidazol-2-yl)piperidin-1-yl)-4-oxobutyl)-3-(2,5-dimethoxyphenyl)urea], 6.00 to 7.00.
On the same count and under the same terms, in the case of `COCCCn1c([C@@H]2CCCN(C(=O)C[C@H](N)CNC(=O)Nc3ccccc3OC(F)F)C2)nc2ccccc21` [Compound 274, 1-((S)-2-amino-4-((R)-3-(1-(3-methoxypropyl)-1H-benzo[d]imidazol-2-yl)piperidin-1-yl)-4-oxobutyl)-3-(2-(difluoromethoxy)phenyl)urea] it was 6.00 to 7.00; in that of `COCCCn1c([C@@H]2CCCN(C(=O)C[C@H](N)CNC(=O)c3ccc(-c4ccccc4[N+](=O)[O-])o3)C2)nc2ccccc21` [Compound 275, N-((S)-2-amino-4-((R)-3-(1-(3-methoxypropyl)-1H-benzo[d]imidazol-2-yl)piperidin-1-yl)-4-oxobutyl)-5-(2-nitrophenyl)furan-2-carboxamide], 6.00 to 7.00.

As usually defined, the pIC50 is −log10 of the IC50, conventionally taken in molar units.
